Data as given in paper PMC6562117, “The role of the tyrosine kinase Wzc (Sll0923) and the phosphatase Wzb (Slr0328) in the production of extracellular polymeric substances (EPS) by Synechocystis PCC 6803” (MicrobiologyOpen, 2019).

Experiments:
Wzc (Sll0923); His6-Wzc = biological target: T1, Wzc (Sll0923); His6-Wzc (Synechocystis sp. PCC 6803, UniProt P72877); experiment: ATP consumption by luciferase bioluminescence (ENLITEN); type: biochemical; settings: 25 mM Tris-HCl pH 7.0, 1 mM DTT, 5 mM MgCl2, 30 C, 45 min; heat-inactivated Wzc as control
T1 construct: gene epsB
T1 sequence (P72877 entry or part of it): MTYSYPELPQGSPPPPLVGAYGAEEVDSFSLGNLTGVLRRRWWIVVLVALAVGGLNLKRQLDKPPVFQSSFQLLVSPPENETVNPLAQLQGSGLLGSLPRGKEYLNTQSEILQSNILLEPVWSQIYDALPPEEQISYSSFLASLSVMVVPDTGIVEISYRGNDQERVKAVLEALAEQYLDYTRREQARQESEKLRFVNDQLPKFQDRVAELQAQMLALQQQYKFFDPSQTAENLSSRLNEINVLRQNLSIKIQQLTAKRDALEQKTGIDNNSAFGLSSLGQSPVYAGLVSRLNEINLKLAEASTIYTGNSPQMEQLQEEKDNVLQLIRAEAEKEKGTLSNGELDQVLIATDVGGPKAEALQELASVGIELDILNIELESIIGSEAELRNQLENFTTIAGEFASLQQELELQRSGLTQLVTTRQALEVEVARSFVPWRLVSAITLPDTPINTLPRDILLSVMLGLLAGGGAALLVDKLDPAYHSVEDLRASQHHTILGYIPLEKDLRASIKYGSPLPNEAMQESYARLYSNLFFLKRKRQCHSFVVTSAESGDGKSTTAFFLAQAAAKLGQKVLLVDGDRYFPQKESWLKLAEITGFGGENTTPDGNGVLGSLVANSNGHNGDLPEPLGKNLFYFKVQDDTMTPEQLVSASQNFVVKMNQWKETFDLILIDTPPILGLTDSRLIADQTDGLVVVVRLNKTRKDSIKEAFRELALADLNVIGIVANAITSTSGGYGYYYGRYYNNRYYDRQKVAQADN

Wzb (Slr0328); His6-Wzb = biological target: T2, Wzb (Slr0328); His6-Wzb (Synechocystis sp. PCC 6803, UniProt Q55535); experiment: continuous p-nitrophenol release at […] nm; type: biochemical; settings: 10 mM pNPP, 100 mM sodium citrate pH 6.5, 1 mM EDTA, 0.1% beta-mercaptoethanol, 30 C
T2 construct: one monomer in the asymmetric unit
T2 sequence (Q55535 whole entry): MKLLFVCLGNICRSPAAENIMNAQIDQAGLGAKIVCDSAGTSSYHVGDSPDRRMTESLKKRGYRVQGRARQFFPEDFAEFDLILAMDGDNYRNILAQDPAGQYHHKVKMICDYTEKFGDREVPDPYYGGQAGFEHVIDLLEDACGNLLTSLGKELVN

## Nc1ncnc2c1ncn2[C@@H]1O[C@H](COP(=O)(O)OP(=O)(O)OP(=O)(O)O)[C@@H](O)[C@H]1O [ATP]
Wzc (Sll0923); His6-Wzc
  ATP consumption by luciferase bioluminescence (ENLITEN): Wzc is capable of ATP binding and hydrolysis

## O=[N+]([O-])c1ccc(OP(=O)(O)O)cc1 [p-nitrophenyl phosphate]
Wzb (Slr0328); His6-Wzb
  continuous p-nitrophenol release at 405 nm: we first used a p‐nitrophenyl phosphate hydrolysis assay to confirm that Wzb functions as a phosphatase
